Data reported in patent US20240050406A1, “COMPOSITION COMPRISING OXIRACETAM FOR PREVENTING OR TREATING MUSCULAR DISEASE” (KSB TUGEN INC., priority 2021, published 2024).

Key:
C2C12 myotubes = assay: Myotube diameter in TNF-α muscular atrophy cell model (Experimental Example 7); type: cell-based, mouse
Experimental: A mouse-derived C2C12 cell line was provided from the American Type Culture Collection (ATCC, CRL-1772; Manassas, VA, USA) and cultured at 37° C. in 5% CO2. In the proliferation phase of the cells before differentiation, high concentration glucose Dulbecco's modified Eagle's medium (DMEM) containing 1% penicillin/streptomycin and 10% fetal bovine serum (FBS) medium were used, and in the differentiation induction, the FBS medium was replaced with a 2% horse serum (HS)-containing medium. The C2C12 myoblasts were seeded into a 96 well culture plate and a 6 well culture plate at 2×10^5/well and 5×10^3/well, respectively, and cultured at 37° C. in a CO2 incubator. When the confluency reached approximately 90%, the medium was replaced with 2% horse serum (HS)-containing DMEM to induce differentiation of myoblasts. After 5 days, the C2C12 myotubes that had differentiated were treated with 10 ng/ml TNF-α, which is an inflammatory factor, for 48 hours to cause myotube atrophy, thereby creating a muscular atrophy cell model, TNF-α-treated group (TNF-α). During the TNF-α treatment, 10 μM oxiracetam was treated to create an oxiracetam-treated group (Oxiracetam 10 μM), cells that were not treated during the same period were prepared as a control. Two days after TNF-α and oxiracetam treatment, each of the TNF-α-treated group (TNF-α), the oxiracetam-treated group (Oxiracetam 10 μM) and the control was treated with an ATP detection reagent at room temperature, and then luminescence was measured using a mitochondrial ToxGlo™ assay kit (Promega). In addition, the TNF-α-treated group (TNF-α), the oxiracetam-treated group (Oxiracetam 10 μM) and the control were photographed using an optical microscope and the diameter of a myotube cell in each group were measured and compared. Statistical processing was performed using GraphPad Prism (GraphPad Software Inc., San Diego, CA, USA).

[1] = tested on: animal model in which muscular atrophy was induced by dexamethasone; assay: Comparison with racetam-based drugs in dexamethasone muscular atrophy model (Experimental Example 4); type: in vivo, ICR mice
Description: For an experimental group in the present invention, oxiracetam having a structure of Formula 1 was purchased from Tokyo Chemical Industry (Japan; Product No. 00398, CAS RN:62613-82-5, purity: 96%) and used. Other racetam drugs, such as aniracetam and nepiracetam, were purchased from Bide Pharmatech (W-44; China, Product Nos. BD114391, BD140804, purity: 96%), piracetam, phenylpiracetam, corulacetam and pramiracetam were purchased from Tokyo Chemical Industry (Japan, Product Nos. P2880, P2604, C3689, P2061, purity: 96%), levetiracetam was purchased from Roeun China, Product No. R025860, purity: 96%), brivaracetam was purchased from R&D Systems (USA, Product No. 7271, purity: 96%), rolziracetam and faroracetam were purchased from Targetmol (USA, Product Nos. T16783, T19624, purity: 96%), and rolipram was purchased from Aladdin (MAT; China, Product No. R129674, purity: 96%).
As experimental animals, 7-week-old male ICR mice were purchased and used. […]
To measure grip strength, a grip strength test was performed. […] After measurement before drug administration (day 0) and on day 20 after drug administration began, grip strength variation (%) after drug administration began (day 20) with respect to that before drug administration (day 0) was calculated.
The lean body mass of the gastrocnemius muscle (GS) and the lean body mass of the tibialis anterior (TA) for each group were measured every 7 days. […] During photographing, the respiratory rates and body temperatures of the animal models were measured with an animal monitoring system (SA Instruments, USA).
The whole body of the animal model was photographed through dual energy X-ray absorptiometry (DEXA) using iNSiGHT VET DXA (Osteosys, KR), and the lean body mass of each of the gastrocnemius muscle (GS) and the tibialis anterior (TA) was measured and calculated from the two-dimensional images of the gastrocnemius muscle (GS) and the tibialis anterior (TA) by a program using the region of interest (ROI). […]

[2] = drug 30 mg/kg/day (piracetam 100 mg/kg/day) oral 21 days + dexamethasone, DEXA every 7 days

## NC(=O)CN1CC(O)CC1=O (racemic) [oxiracetam, (RS)-2-(4-hydroxy-2-oxopyrrolidin-1-yl)acetamide]
C2C12 myotubes; TNF-α 10 ng/ml 48 h + oxiracetam 10 μM, compared to TNF-α-treated group
  diameter of a myotube: significant increase
C2C12 myotubes; TNF-α 10 ng/ml 48 h with oxiracetam 10 μM or 0 μM, relative to non-treated control
  diameter of a myotube relative to control: recovers to a level similar to the control
[1]; drug 30 mg/kg/day (piracetam 100 mg/kg/day) oral 21 days + dexamethasone 10 mg/kg i.p. day 7-21, day 20 vs day 0
  change in grip strength: recovers to greater than the control
[1]; [2]
  lean body mass of the gastrocnemius muscle (GS): recover the lean body mass of the gastrocnemius muscle (GS) to the control (vehicle) level
  lean body mass of the tibialis anterior (TA): recover the lean body mass of the tibialis anterior (TA) to the control (vehicle) level
